Laboratory results reported in US3989836A, “Method for treating cardiovascular circulatory insufficiencies and hypotonia with 2-hydroxyphenyl-1-oxa-4-azaspiroalkane derivatives” (Warner-Lambert Company, priority 1973, dated 1976).
Like-named read-outs stand apart in the source and are kept apart here.

What was measured:
Format in all cases: in vivo
[1] = Toxicity on mice (LD50 i.g., largest dose i.v. at which all animals survive); conditions: for LD50: mouse, in vivo, po; for LD50 i.g.: mice, footnote: not determinable because of insufficient resorption, no dosage-dependent death of the animals
Experimental: I. toxicity was determined on mice in the usual manner; the test and comparison substances being administered in aqueous solution by means of a stomach probe.

average blood pressure [2] = assay: Sympathomimetic action: increase of the average blood pressure by 25% over the initial value (narcotised dogs); conditions: for ED (25% increase): Canis lupus familiaris, read-out: dose for increase of the average blood pressure by 25% over the initial value
Experimental: Ii. sympathomimetic action was determined by measurement of the arterial and venous blood pressure using Statham transducers. The measured values were recorded by means of a direct recording instrument. As experimental animals, adult dogs of both sexes, were used; these had been narcotised with pentobarbital. During the experiment, the animals were kept at their specific body temperature by means of rectum-controlledinfra-red lamps. The compounds tested were injected, in the form of an isotonic solution, into the side branch of the vena femoralis. In the case of intraduodenal administration, the animals were laparotomised, and a cannula was fixed into the small intestine so that the substance, in the form of an aqueous solution, could be introduced directly into the intestine. Furthermore, the pylorus was ligatured in order to prevent regurgitation of the substance into the stomach. In the case of intragastric administration, the substances were administered in the form of an aqueous solution by means of a stomach probe.

average blood pressure [3] = assay: Sympathomimetic action: increase of the average blood pressure in % of initial value (awake dogs); conditions: for increase of the average blood pressure: i.g. up to 20 mg/kg
Experimental: Ii. sympathomimetic action was determined by measurement of the arterial and venous blood pressure using Statham transducers. The measured values were recorded by means of a direct recording instrument. In the case of intragastric administration, the substances were administered in the form of an aqueous solution by means of a stomach probe. Quiet and compatible dogs were trained to lie, without sedation, for a few hours on an operating board. Under local anesthesia, a catheter was introduced into the arteria femoralis. A measurement of arterial blood pressure was then carried out using the catheter and a Statham transducer.

[4] = Toxicity on mice (LD50 i.g., largest dose i.v. at which all animals survive)

| Compound | LD50 [1] [mg/kg] | ED (25% increase) (average blood pressure [2]; intraduodenal, i.d.) [mg/kg] | duration of increase of the average blood pressure by 25% over the initial value (average blood pressure [2]; i.d. 2.0 mg/kg) | duration of increase of the average blood pressure (average blood pressure [3]; i.g. 4 mg/kg) | increase of the average blood pressure in % of initial value (average blood pressure [3]; i.g. 4 mg/kg) [%] | increase of the average blood pressure in % of initial value (average blood pressure [3]; i.v. 0.05 mg/kg) | largest dose i.v. at which all animals survive [4] [mg/kg] | ED (25% increase) (average blood pressure [2]; po, i.g.) [mg/kg] | duration of increase of the average blood pressure by 25% over the initial value (average blood pressure [2]; i.g. 2.0 mg/kg) | duration of increase of the average blood pressure (average blood pressure [3]; i.g. 2 mg/kg) | increase of the average blood pressure in % of initial value (average blood pressure [3]; i.g. 2 mg/kg) [%] | duration of increase of the average blood pressure by 25% over the initial value (average blood pressure [2]; i.g. 4.0-16.0 mg/kg) | duration of increase of the average blood pressure (average blood pressure [3]; i.g. 16 mg/kg) | increase of the average blood pressure in % of initial value (average blood pressure [3]; i.g. 16 mg/kg) [%] | increase of the average blood pressure in % of initial value (average blood pressure [3]; i.v. 1 mg/kg) | LD50 i.g. [1] | increase of the average blood pressure (average blood pressure [3]) |
| --- | --- | --- | --- | --- | --- | --- | --- | --- | --- | --- | --- | --- | --- | --- | --- | --- | --- |
| Oc1cccc(C2CNC3(CCCCC3)O2)c1 (stereo not shown) [A, 2-(3'-hydroxyphenyl)-1-oxa-4-azaspiro[4,5]decane] | > 400 | 2 | > 50 ' | > 60 ' | 40 | 50-80% | 3.3 |  |  |  |  |  |  |  |  |  |  |
| Oc1cccc(C2CNC3(CCCCCC3)O2)c1 (stereo not shown) [B, 2-(3'-hydroxyphenyl)-1-oxa-4-azaspiro[4,6]undecane] | ~400 |  |  |  |  | 40-70% | 3.3 | 2 | > 60 ' | 70 ' | 35 |  |  |  |  |  |  |
| CC1=CC2(CC(C)(C)C1)NCC(c1cccc(O)c1)O2 (stereo not shown) [C, 7,9,9-trimethyl-2-(3'-hydroxyphenyl)-1-oxa-4-azaspiro-[4,5]dec-6-ene] | ~1200 |  |  |  |  |  | 20.7 | 4 to 16 |  |  |  | 60 ' | 34 ' | 50 | 30-60% |  |  |
| NCC(O)c1cccc(O)c1 (stereo not shown) [D, 1-(3'-hyroxyphenyl)-2-aminoethanol, reference compound] |  | > 20 |  |  |  | 50-70% | 3.3 |  |  |  |  |  |  |  |  | not determinable | without effect |
| CCNCC(O)c1cccc(O)c1 (stereo not shown) [E, 1-(3'-hydroxyphenyl)-2-ethylaminoethanol, reference compound] |  | > 20 |  |  |  | 25% | 7.25 |  |  |  |  |  |  |  |  | not determinable | without effect |
